Results: patent US20220257595A1, “MACITENTAN FOR USE IN TREATING PORTOPULMONARY HYPERTENSION” (ACTELION PHARMACEUTICALS LTD, priority 2019, published 2022)

Legend:
patients with PoPH [1] = experiment: PORTICO safety: Child-Pugh classification and MELD score; type: in vivo
Excerpt: (§1) For the evaluation of treatment-emergent safety endpoints in the DB phase, the observation period for each individual subject started at the time of the first administration of macitentan or placebo and ended with the start of OL treatment or 30 days after DB treatment discontinuation (whichever occurred first). The safety variables listed below apply to the DB treatment-emergent period and the macitentan treatment-emergent period. The DB treatment-emergent period was defined as the period from the DB treatment start date up to the EOT-DB+30 days or to the EOT-DB for patients entering OL. The macitentan treatment-emergent period was defined as the period from the first intake of macitentan up to end of macitentan treatment (EOMT)+30 days. EOMT was defined as EOT-DB (for patient who received macitentan only in the DB period) or EOT-OL when applicable. […]

patients with PoPH [2] = experiment: PORTICO safety: vital signs, body weight, BMI; settings: in vivo
Excerpt: as §1

[3] = Phase 1, chronic hepatic impairment, varying grades of liver disease severity; cited from earlier work
patients with PoPH [4] = experiment: Post-hoc: liver transplant waitlist mortality risk (PVR categories); type: in vivo, human
Description: (§2) Post-Hoc, Exploratory Criteria: • Proportion of patients with NT-proBNP decrease from above 300 ng/L to below this threshold • Odds ratio for improvement to a more favorable liver transplant perioperative risk category • Odds ratio for becoming eligible for the MELD exception • Odds ratio for improvement to a more favorable waitlist mortality risk category
(§3) Risk categories related to liver transplant (transplant perioperative risk classification, MELD exception eligibility and waitlist mortality risk) were analyzed descriptively by treatment group using shift tables from baseline to Week 12 with categories as defined in Example 1.
(§4) LT perioperative risk classification, MELD exception eligibility, and waitlist mortality analyses were performed after the database lock and SDTMs delivery for the Double-Blind period. Number (%) of patients in following categories were summarized and presented in shift tables. The estimated odds ratio for risk improvement and corresponding 95% confidence intervals were obtained from an exact logistic regression (macitentan vs placebo) with factors for treatment and risk category at baseline.
The outcomes of PoPH patients who were granted MELD exception in the US were analyzed. […] Age, initial MELD score and initial PVR were significant predictors of waitlist mortality, although their accuracy was limited. The results were illustrated by defining 4 groups depending on their PVR and MELD score: high PVR (PVR>450 dyn·sec·cm^−5), low PVR (PVR ≤450 dyn·sec·cm^−5), high MELD (MELD >12) or low MELD (MELD ≤12).

patients with PoPH [5] = experiment: Post-hoc: MELD exception eligibility (mPAP/PVR); type: in vivo, human
Description: as §2, §3, §4
In general, liver grafts are attributed in priority to patients who need a liver transplant the most urgently. This assessment lies mostly on the Model for End-stage Liver Disease (MELD) score: the higher the score, the higher the patient's priority on the waiting list. In PoPH, by the time MELD score is high enough to obtain a liver graft, the hemodynamic state is generally too severely impaired for the procedure. In the US, a PoPH MELD exception rule (MELD exception) is in place to facilitate access to a liver graft to patients with PoPH who attain mPAP ≤[…] and PVR ≤400 dyn·sec·cm^−5 with PAH treatment. Patients are priority-ranked on the waitlist with a higher MELD score than their actual score. This allows obtaining a liver graft at a time when liver impairment is moderate, before cardiopulmonary impairment becomes a contraindication to transplant.

[6] = system: endothelin A and B receptors; settings: nonclinical in vivo studies; cited from earlier work
[7] = Week 12, exact logistic regression

## CCCNS(=O)(=O)Nc1ncnc(OCCOc2ncc(Br)cn2)c1-c1ccc(Br)cc1 [macitentan, N-[5-(4-Bromophenyl)-6-[2-[(5-bromo-2-pyrimidinyl)oxy]ethoxy]-4-pyrimidinyl]-N′-propylsulfamide]
Patients with PoPH [1]; DB phase, macitentan group n=23
  Patients with worsening in Child-Pugh category: none
Patients with PoPH [1]; DB phase, range 6-15
  Median MELD score at Week 12: 10
Patients with PoPH [1]; combined DB+OL phase, patient had placebo in DB phase
  Patients worsening from Child-Pugh category A to B during macitentan treatment: 1 patient
Patients with PoPH [2]
  Effect on vital signs, body weight or BMI: no indication of any notable effect
[3]
  Change in PK of macitentan and its metabolites in hepatic impairment: no clinically relevant change
Patients with PoPH [4]; Baseline Category 2 (n = 30), Full analysis set, 10 mg, N = 43
  PVR risk categories (waitlist mortality): Week 12 Category 2 (PVR > 450 dyn · sec/cm^5): 9 n (%)
Patients with PoPH [4]; [7]
  Odds of changing to the low waitlist mortality risk group, macitentan vs placebo: 10.48 times
Patients with PoPH [4]; after 12 weeks, FAS no imputation, 18 patients
  Patients moving from waitlist high-risk group (PVR >450 dyn·s·cm^−5) to low-risk group: 41.9%
Patients with PoPH [4]; macitentan vs placebo, exact logistic regression, 95% CI 2.381, 66.810, p-value 0.0005
  PVR risk categories: Between-treatment odds ratio for improvement, OR: 10.479
Patients with PoPH [5]; Baseline Category 1 (n = 1), Full analysis set, 10 mg, N = 43
  Liver transplant (MELD exception) eligibility based on mPAP/PVR: Week 12 Category 2 (mPAP ≤ 35 and PVR ≤ 400 dyn · sec/cm^5 = NO): 0 n (%)
Patients with PoPH [5]; Total, Full analysis set, 10 mg, N = 43
  Liver transplant (MELD exception) eligibility based on mPAP/PVR: Week 12 Category 1 (mPAP ≤ 35 and PVR ≤ 400 dyn · sec/cm^5 = YES): 9 n (%)
Patients with PoPH [5]; [7]
  Odds of becoming eligible for the MELD exception, macitentan vs placebo: 4.51 times
Patients with PoPH [5]; after 12 weeks, FAS no imputation, 8 patients
  Patients not meeting MELD exception criteria at baseline who met them (mPAP ≤35 mmHg and PVR ≤400 dyn·sec·cm^−5): 18.6%
Patients with PoPH [5]; macitentan vs placebo, exact logistic regression, 95% CI 0.822, 46.462, p-value 0.0958
  Liver transplant eligibility: Between-treatment odds ratio for improvement, OR: 4.512
[6]
  Potency compared with bosentan: higher potency than bosentan
